Source: US20090318552A1, “Pharmaceutical composition comprising shikonin derivatives from lithospermum erythrorhizo dor treating or preventing diabetes mellitus and the use thereof” (priority 2006, published 2009)
“Also recorded” adds a separate entry of the source.

These compounds were tested against T1, KATP ion channels of beta cells in the pancreas (HIT-T15 cells) (UniProt A0A1U7QRT4+Q09427) (assay: Electro-physiological experiment: whole cell patch clamp recording of KATP current). Conditions: single compounds vs GBC; FIG. 5.
T1 construct: endogenous in cells; host or cells: HIT-T15 cells
T1 sequence (Q09427 whole entry): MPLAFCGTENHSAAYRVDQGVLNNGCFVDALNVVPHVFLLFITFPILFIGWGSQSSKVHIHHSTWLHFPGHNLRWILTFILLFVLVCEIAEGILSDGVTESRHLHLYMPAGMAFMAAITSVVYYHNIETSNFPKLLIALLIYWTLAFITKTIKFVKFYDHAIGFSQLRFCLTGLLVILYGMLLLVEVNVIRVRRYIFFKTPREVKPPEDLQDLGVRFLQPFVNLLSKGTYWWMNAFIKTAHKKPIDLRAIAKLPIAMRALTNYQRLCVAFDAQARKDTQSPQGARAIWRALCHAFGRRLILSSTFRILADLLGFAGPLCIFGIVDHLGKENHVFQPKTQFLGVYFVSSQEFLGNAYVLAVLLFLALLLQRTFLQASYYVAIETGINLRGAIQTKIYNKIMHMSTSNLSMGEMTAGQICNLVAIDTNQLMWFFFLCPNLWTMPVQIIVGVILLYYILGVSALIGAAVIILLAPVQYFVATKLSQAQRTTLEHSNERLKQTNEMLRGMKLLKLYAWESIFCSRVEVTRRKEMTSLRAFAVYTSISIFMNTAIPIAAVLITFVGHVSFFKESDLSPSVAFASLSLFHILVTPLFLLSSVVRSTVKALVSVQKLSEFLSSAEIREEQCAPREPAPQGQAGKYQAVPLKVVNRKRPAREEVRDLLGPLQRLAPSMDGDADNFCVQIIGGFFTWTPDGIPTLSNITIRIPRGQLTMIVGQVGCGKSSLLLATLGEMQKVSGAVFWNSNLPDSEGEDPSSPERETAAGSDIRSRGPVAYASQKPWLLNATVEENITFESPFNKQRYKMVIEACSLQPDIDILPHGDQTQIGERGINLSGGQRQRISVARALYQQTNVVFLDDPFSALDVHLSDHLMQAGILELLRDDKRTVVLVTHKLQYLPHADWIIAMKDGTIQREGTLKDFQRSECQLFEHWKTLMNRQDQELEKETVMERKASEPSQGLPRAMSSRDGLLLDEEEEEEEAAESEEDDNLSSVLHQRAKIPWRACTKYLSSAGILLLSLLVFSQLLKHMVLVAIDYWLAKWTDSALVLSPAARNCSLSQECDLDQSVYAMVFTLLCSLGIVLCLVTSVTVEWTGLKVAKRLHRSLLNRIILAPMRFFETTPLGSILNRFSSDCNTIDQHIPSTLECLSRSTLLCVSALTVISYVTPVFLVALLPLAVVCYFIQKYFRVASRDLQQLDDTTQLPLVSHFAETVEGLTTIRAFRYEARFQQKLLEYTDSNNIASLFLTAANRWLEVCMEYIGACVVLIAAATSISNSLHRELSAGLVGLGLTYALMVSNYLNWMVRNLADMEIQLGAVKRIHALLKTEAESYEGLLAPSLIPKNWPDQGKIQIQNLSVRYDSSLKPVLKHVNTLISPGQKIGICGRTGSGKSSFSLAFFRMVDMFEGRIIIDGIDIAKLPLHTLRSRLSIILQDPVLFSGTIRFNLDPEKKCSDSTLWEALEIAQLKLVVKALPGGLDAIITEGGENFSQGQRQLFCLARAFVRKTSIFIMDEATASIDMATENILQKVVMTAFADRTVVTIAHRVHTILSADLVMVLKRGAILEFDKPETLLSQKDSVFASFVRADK
T1 sequence (A0A1U7QRT4 1-390): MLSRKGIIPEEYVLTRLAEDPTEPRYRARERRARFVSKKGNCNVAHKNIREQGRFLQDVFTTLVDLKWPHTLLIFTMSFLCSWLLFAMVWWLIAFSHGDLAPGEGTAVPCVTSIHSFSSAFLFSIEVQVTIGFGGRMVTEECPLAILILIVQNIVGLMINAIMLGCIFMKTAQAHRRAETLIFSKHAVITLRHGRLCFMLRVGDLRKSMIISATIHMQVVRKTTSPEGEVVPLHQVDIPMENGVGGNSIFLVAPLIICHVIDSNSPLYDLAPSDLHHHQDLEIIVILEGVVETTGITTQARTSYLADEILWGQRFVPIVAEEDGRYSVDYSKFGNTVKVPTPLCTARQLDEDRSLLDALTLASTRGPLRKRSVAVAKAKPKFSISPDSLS
Format: cell-based
Procedure: HIT-T15 cells used for the experimental examples below were cultivated in an RPMI 1640 culture medium containing horse serum (10%, v/v), fetal bovine serum (2.5% v/v), and 1% penicillin-streptomycin, in a 5% CO2 incubator at 37° C.
Since type II diabetes is directly related to the KATP ion channels of beta cells in the pancreas (Tarasov, A. et al., Diabetes., 53(3), pp. S113-S122, 2004), it was tested whether or not the Lithospermum erythrorhizon extract obtained in the above example or the shikonin compounds isolated therefrom blocks the KATP ion channels of beta cells in the pancreas.
The ion current was recorded by a conventional whole cell patch clamp method, using a patch clamp amplifier (EPC-9, Heka Elektronik, Lambrecht, Germany). The measurement electrode was pulled from a borosilicate glass capillary using a puller (DMZ-Universal Puller; Dagan Co., USA). The electrode was selected to have a resistance of 6 to 9 MΩ when a solution was filled in the electrode. A cover glass, to which the cells were adhered, was placed on a microscope, and the extra-cellular fluid was allowed to flow, due to gravity, at a speed of up to 0.5 ml/min. When measuring the KATP electric current, the solution inside the electrode included (in mM): 10 NaCl, 102 KCl, 1 CaCl2, 1 MgCl2, 10 HEPES, 0.1 Na2-ATP, 1 Na2-GTP, and 10 EGTA (pH 7.2). To utilize the voltage-clamp method in taking records, the capacitance and series resistance of the cell membranes were compensated by 80% or higher, and the low-pass filter was set to 1 kHZ during the experiments. To measure the KATP electric current, the cell solution was substituted with 110 mM of a barium solution (mM: 110 BaCl2, 10 HEPES, 10 glucose), after which the membrane potential was fixed at −60 mV, and the resulting introvert current was recorded. The experiment results were stored in a Pentium level IBM computer and analyzed using Pulse/Pulsefit (v8.65) software (Heka Elektronik, Lambrecht, Germany), and all of the experiments were performed at room temperature.

Row | SMILES | inhibition of KATP ion channels by shikonin single compounds compared with GBC
1 | CC(C)=CCC(OC(=O)C=C(C)C)C1=CC(=O)c2c(O)ccc(O)c2C1=O (stereo not drawn) [DS, β. β-dimethylacryl Shikonin] | effectively inhibit KATP ion channels; also recorded: the best in providing the inhibitory effects
2 | CC(C)=CCC(OC(=O)CC(C)C)C1=CC(=O)c2c(O)ccc(O)c2C1=O (stereo not shown) [VS, Isovaleryl Shikonin] | effectively inhibit KATP ion channels; also recorded: the best in providing the inhibitory effects
3 | CCC(C)C(=O)OC(CC=C(C)C)C1=CC(=O)c2c(O)ccc(O)c2C1=O (stereo not drawn) [MS, α-methyl-n-butyryl Shikonin] | effectively inhibit KATP ion channels
4 | CC(C)=CCC(OC(=O)C(C)C)C1=CC(=O)c2c(O)ccc(O)c2C1=O (stereo not shown) [BS, Isobutyryl Shikonin] | effectively inhibit KATP ion channels
